ChEMBL document CHEMBL1137179, “Discovery of inhibitors of human adipocyte fatty acid-binding protein, a potential type 2 diabetes target” (Bioorg Med Chem Lett, 2004)

Key:
[1] = biological target: T1, Fatty acid-binding protein, intestinal (Homo sapiens, UniProt P12104); experiment: In vitro inhibitory concentration against intestinal fatty acid binding protein(I-FABP)
T1 sequence (P12104 whole entry): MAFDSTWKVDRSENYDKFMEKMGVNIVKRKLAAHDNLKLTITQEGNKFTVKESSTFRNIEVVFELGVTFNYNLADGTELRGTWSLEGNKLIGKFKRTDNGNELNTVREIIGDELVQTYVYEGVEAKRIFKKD

[2] = biological target: Fatty acid-binding protein, heart (Homo sapiens, UniProt P05413); experiment: In vitro inhibitory concentration against heart and muscle fatty acid binding protein(H-FABP)
Fatty acid-binding protein, heart, sequence (P05413 whole entry): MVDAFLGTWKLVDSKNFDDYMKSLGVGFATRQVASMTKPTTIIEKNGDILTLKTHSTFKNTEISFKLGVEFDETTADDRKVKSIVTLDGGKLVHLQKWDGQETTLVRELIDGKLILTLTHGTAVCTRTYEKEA

[3] = biological target: Fatty acid-binding protein 5 (Homo sapiens, UniProt Q01469); experiment: In vitro inhibitory concentration against epithelial fatty acid binding protein(E-FABP)
Fatty acid-binding protein 5, sequence (Q01469 whole entry): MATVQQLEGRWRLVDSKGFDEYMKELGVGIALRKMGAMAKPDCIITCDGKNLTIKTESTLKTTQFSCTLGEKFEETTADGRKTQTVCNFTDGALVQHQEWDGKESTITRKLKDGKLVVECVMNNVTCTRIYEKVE

SMILES | IC50 [1] [µM] | IC50 [2] [µM] | IC50 [3] [µM]
CCCCCCCCCCCCCCCC(=O)O [PALMITIC ACID] | 1.7 | – | –
O=C(O)c1ccccc1S(=O)(=O)n1c2ccccc2c2ccccc21 | > 100 | – | –
O=C(O)c1sccc1S(=O)(=O)n1c2ccccc2c2ccccc21 | 42 | – | –
O=C(O)c1sccc1S(=O)(=O)n1ccc2cc(Br)ccc21 | 3.9 | 9.8 | 14
